According to US20220125898A1, “PAR2 MODULATION AND METHODS THEREOF” (JANSSEN BIOTECH, INC., priority 2019, published 2022):
Substitutions are numbered along the chain they refer to.

Assays:
[1] = system: HEK293 cells with par1 and par2 knocked-out; assay: FLIPR characterization of par1 and par2 knock-out HEK293 cells; format: cell-based, human
Excerpt: A PAR1, PAR2 knock-out HEK293 cell line was created by Applied StemCells (Milpitas, Calif.) using a CRISPR/Cas9 approach. Briefly, the coding region (nucleotide 374-643) of PAR1, which encodes the protein region transmembrane region 2 (TM2) to transmembrane region 3 (TM3) of PAR1, was deleted. Similarly, the coding region (281-627) of PAR2, which encodes the protein region TM2 to TM3 of PAR2, was deleted. Single cell clones were isolated. PCR analysis of the genomic DNA followed by DNA sequencing was used to confirm the deletion of the DNA fragments.
FLIPR-Tetra (Molecular Device, San Jose, Calif.) was used to monitor intracellular Ca^2+ mobilization in HEK293 cells, HEK293 cells with PAR1 and PAR2 knocked-out, and cells transiently transfected with various PAR2 expression constructs. Cells were grown in 96-well polyD-lysine coated black FLIPR plates (Corning) in DMEM supplemented with 10% FCS, 1 mM pyruvate, 20 mM HEPES, at 37° C. with 5% CO2. For transient transfection, cells were grown in 96-well polyD-lysine coated black FLIPR plates and transfected using FuGENE HD (Promega, Madison, Wis.) as the transfection reagent according to the manufacturer's instructions. […] Intracellular Ca^2+ mobilization stimulated by various concentrations of ligands (trypsin, or peptide ligand) was monitored by FLIPR-Tetra as described (Liu et al., Mol. Pharmacol. 88:911-25 (2015)). […]

[2] = biological target: T1, recombinantly expressed PAR2 (Homo sapiens, UniProt P55085); assay: FLIPR intracellular Ca2+ mobilization, recombinant wild type PAR2 transiently expressed in par1/par2 knock-out HEK293; format: cell-based
T1 construct: was used to amplify the full length PAR2 cDNA coding region; expressed in transfected cells; host or cells: HEK293 cells with par1 and par2 knocked out, transient, pcDNA3.1
T1 sequence (P55085 26-397): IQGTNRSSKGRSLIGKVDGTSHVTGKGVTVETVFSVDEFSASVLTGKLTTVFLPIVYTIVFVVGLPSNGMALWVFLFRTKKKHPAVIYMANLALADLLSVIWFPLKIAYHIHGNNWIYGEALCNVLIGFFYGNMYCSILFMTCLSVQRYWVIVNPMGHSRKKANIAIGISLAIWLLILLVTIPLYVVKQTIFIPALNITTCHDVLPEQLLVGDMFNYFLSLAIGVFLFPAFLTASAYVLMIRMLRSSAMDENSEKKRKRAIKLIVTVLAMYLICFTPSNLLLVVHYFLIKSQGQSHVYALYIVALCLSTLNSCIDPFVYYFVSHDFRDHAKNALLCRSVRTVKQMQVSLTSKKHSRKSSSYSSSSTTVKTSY
Procedure: (§1) FLIPR-Tetra (Molecular Device, San Jose, Calif.) was used to monitor intracellular Ca^2+ mobilization in HEK293 cells, HEK293 cells with PAR1 and PAR2 knocked-out, and cells transiently transfected with various PAR2 expression constructs. Cells were grown in 96-well polyD-lysine coated black FLIPR plates (Corning) in DMEM supplemented with 10% FCS, 1 mM pyruvate, 20 mM HEPES, at 37° C. with 5% CO2. For transient transfection, cells were grown in 96-well polyD-lysine coated black FLIPR plates and transfected using FuGENE HD (Promega, Madison, Wis.) as the transfection reagent according to the manufacturer's instructions. For samples treated with protease inhibitors, protease cocktail was added to cell culture one day after transfection and incubated overnight. Two days after transfection, cell culture media were removed, and cells were washed using HMS buffer plus 20 mM HEPES. Ca^2+ dye (Flura 3) diluted in HMS buffer plus 20 mM HEPES was used to incubate cells at RT for 40 minutes to allow Ca^2+ to enter cells. Intracellular Ca^2+ mobilization stimulated by various concentrations of ligands (trypsin, or peptide ligand) was monitored by FLIPR-Tetra as described (Liu et al., Mol. Pharmacol. 88:911-25 (2015)). The untransfected cells were used as negative controls.

[3] = biological target: T2, endogenously expressed PAR2 in HEK293 cells (Homo sapiens, UniProt P55085); assay: FLIPR intracellular Ca2+ mobilization, wild type HEK293 cells; format: cell-based; conditions: endogenous PAR2, HEK293 cells
T2 construct: the endogenously expressed PAR2 in HEK293 cells; endogenous in cells; host or cells: wild type HEK293 cells
T2 sequence (P55085 26-397): T1 sequence (P55085 26-397)
Procedure: as §1

PAR2ΔSP = biological target: T3, PAR2ΔSP (Homo sapiens, UniProt P55085); assay: FLIPR intracellular Ca2+ mobilization, PAR2 without signal peptide in par1/par2 knock-out HEK293; format: cell-based; conditions: PAR2 without its signal peptide
T3 construct: expressed in transfected cells; host or cells: HEK293 cells with par1 and par2 knocked out, transient, pcDNA3.1
T3 sequence (P55085 with tags, fused parts or gaps): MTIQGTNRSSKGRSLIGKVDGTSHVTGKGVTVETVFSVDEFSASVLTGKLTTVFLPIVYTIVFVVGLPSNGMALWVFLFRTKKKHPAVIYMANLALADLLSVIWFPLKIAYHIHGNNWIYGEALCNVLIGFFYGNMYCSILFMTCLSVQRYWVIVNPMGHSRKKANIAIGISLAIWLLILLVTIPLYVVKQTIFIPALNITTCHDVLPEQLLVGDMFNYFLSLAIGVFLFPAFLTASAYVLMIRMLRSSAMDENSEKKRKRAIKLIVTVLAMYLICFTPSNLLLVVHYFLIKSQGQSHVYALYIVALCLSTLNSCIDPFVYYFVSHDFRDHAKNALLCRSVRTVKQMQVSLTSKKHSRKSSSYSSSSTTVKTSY
Procedure: as §1, with “controls. […]” for “controls.”

PAR2ΔSPΔL = biological target: T4, PAR2ΔSPΔL (Homo sapiens, UniProt P55085); assay: FLIPR intracellular Ca2+ mobilization, PAR2 without signal peptide and tethered ligand; format: cell-based
T4 construct: expressed in transfected cells; host or cells: HEK293 cells with par1 and par2 knocked out, transient
T4 sequence (P55085 with tags, fused parts or gaps): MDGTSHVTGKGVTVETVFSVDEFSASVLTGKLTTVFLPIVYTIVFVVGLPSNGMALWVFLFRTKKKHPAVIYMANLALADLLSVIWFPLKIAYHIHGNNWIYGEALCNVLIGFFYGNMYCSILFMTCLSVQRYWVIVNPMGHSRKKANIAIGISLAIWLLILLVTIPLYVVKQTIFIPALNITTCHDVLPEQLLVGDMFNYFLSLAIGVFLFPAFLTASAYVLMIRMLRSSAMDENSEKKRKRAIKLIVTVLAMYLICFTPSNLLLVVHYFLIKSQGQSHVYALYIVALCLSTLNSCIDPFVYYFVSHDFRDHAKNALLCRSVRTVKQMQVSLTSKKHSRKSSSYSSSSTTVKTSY
Procedure: as §1, with “Intracellular Ca^2+ mobilization stimulated by various concentrations of ligands (trypsin, or peptide ligand) was monitored by FLIPR-Tetra as described (Liu et al., Mol. Pharmacol. 88:911-25 (2015)).” left out

PAR2(R36A) = biological target: T5, PAR2(R36A) (Homo sapiens, UniProt P55085, R36A); assay: FLIPR intracellular Ca2+ mobilization, full length PAR2 with Arg36Ala mutation; format: cell-based
T5 construct: expressed in transfected cells; host or cells: HEK293 cells with par1 and par2 knocked out, transient
T5 sequence (P55085 26-397 R36A): T1 sequence (P55085 26-397) with R11A
Procedure: as §1, with “Intracellular Ca^2+ mobilization stimulated by various concentrations of ligands (trypsin, or peptide ligand) was monitored by FLIPR-Tetra as described (Liu et al., Mol. Pharmacol. 88:911-25 (2015)).” left out

PAR2ΔSP(R36A) = biological target: T6, PAR2ΔSP(R36A) (Homo sapiens, UniProt P55085, R36A); assay: FLIPR intracellular Ca2+ mobilization, signal peptide-less PAR2 with Arg36Ala mutation; format: cell-based
T6 construct: expressed in transfected cells; host or cells: HEK293 cells with par1 and par2 knocked out, transient
T6 sequence (P55085 with tags, fused parts or gaps R36A): T3 sequence (P55085 with tags, fused parts or gaps) with R13A
Procedure: as §1, with “Intracellular Ca^2+ mobilization stimulated by various concentrations of ligands (trypsin, or peptide ligand) was monitored by FLIPR-Tetra as described (Liu et al., Mol. Pharmacol. 88:911-25 (2015)).” left out

[4] = biological target: Human PAR2 wild type, recombinantly expressed in HEK293 cells with par1 and par2 knocked-out (human) (UniProt P55085); assay: cell-based or functional assay
[5] = biological target: PAR2 endogenously expressed in HEK293 cells (human) (UniProt P55085); assay: cell-based or functional assay
[6] = biological target: PAR2 with the signal peptide deleted (PAR2ΔSP) (human) (UniProt P55085); assay: cell-based or functional assay
[7] = biological target: T7, Human PAR2 wild type, recombinantly expressed in HEK293 cells with par1 and par2 knocked-out (human, UniProt P55085 37-397); assay: cell-based or functional assay
T7 sequence: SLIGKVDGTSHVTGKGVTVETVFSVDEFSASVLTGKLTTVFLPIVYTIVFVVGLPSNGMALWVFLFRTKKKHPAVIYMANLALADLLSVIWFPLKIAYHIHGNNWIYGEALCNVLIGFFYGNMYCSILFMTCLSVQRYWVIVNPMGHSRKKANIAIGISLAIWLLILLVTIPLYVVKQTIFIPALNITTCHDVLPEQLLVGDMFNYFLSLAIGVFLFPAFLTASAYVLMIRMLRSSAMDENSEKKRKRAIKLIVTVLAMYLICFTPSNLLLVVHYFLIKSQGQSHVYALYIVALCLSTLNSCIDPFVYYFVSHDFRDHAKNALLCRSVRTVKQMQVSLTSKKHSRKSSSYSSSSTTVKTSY

[8] = biological target: T8, PAR2 endogenously expressed in HEK293 cells (human, UniProt P55085 37-397); assay: cell-based or functional assay
T8 sequence (looked up): T7 sequence

[9] = biological target: T9, PAR2 with the signal peptide deleted (PAR2ΔSP) (human, UniProt P55085 37-397); assay: cell-based or functional assay
T9 sequence: T7 sequence

For thrombin, which “response of knock-out cells to ligand” value [1] is on record?
Its value is “lack of response”.

Which EC50 [2] does the source give for trypsin here?
Its EC50 is 1.5 nM.

What about the EC50 [3] of the same molecule?
Its EC50 is 10 nM.

What about the EC50 (PAR2ΔSP) of the same molecule?
Its EC50 is 50 nM.

What about the “receptor activation in FLIPR assay” value (PAR2ΔSPΔL) of the same molecule?
Its value is “not activated”.

And the “receptor response to ligand stimulation in FLIPR assay” value (PAR2(R36A))?
The value was “very poorly”.

What about the “receptor response to ligand stimulation in FLIPR assay” value (PAR2ΔSP(R36A)) of the same molecule?
Its value is “blocked”.

What about the “response of knock-out cells to ligand” value [1] of the same molecule?
The value was “lack of response”.

Which EC50, FLIPR intracellular Ca2+ mobilization [4] does the source give for Trypsin (sequencing grade) (enzyme) here?
Its EC50, FLIPR intracellular Ca2+ mobilization is 1.5 nM.

And the EC50, FLIPR intracellular Ca2+ mobilization [5]?
The EC50, FLIPR intracellular Ca2+ mobilization was 10 nM.

What about the EC50, FLIPR intracellular Ca2+ mobilization [6] of the same molecule?
The EC50, FLIPR intracellular Ca2+ mobilization was 50 nM.

Which “EC50, FLIPR intracellular Ca2+ mobilization” value [7] does the source give for SLIGKV [PAR2 agonist peptide ligand, SLIGKV] here?
The value was 50 nM.

What about the “EC50, FLIPR intracellular Ca2+ mobilization” value [8] of the same molecule?
The value was 1500 nM.

And the “EC50, FLIPR intracellular Ca2+ mobilization” value [9]?
The value was 5800 nM.

And the “EC50, FLIPR intracellular Ca2+ mobilization, cells treated with protease inhibitor cocktail” value [9]?
Its value is 700 nM.
